Each structure is given as a SMILES string. pIC50: −log10 of the molar value. Like-named read-outs stand apart in the source and are kept apart here.

The assay concerns the target Rho-kinase (ROCK1) (Homo sapiens, UniProt Q13464). Kind of assay: Rho-kinase (ROCK1) inhibition. The class given is biochemical. Particulars: for % Inhibition / Inhibition: concentration not given.
[1] abbreviates: Table 2, first number of the cell.
Where [2] appears, read: read-out: IC50, inhibitory activity against Rho-kinase activity.
[3] abbreviates: Table 3, first number of the cell.
[4] abbreviates: Table 1, first number of the cell.

Sequence of Rho-kinase (ROCK1) (Q13464 whole entry, species assumed): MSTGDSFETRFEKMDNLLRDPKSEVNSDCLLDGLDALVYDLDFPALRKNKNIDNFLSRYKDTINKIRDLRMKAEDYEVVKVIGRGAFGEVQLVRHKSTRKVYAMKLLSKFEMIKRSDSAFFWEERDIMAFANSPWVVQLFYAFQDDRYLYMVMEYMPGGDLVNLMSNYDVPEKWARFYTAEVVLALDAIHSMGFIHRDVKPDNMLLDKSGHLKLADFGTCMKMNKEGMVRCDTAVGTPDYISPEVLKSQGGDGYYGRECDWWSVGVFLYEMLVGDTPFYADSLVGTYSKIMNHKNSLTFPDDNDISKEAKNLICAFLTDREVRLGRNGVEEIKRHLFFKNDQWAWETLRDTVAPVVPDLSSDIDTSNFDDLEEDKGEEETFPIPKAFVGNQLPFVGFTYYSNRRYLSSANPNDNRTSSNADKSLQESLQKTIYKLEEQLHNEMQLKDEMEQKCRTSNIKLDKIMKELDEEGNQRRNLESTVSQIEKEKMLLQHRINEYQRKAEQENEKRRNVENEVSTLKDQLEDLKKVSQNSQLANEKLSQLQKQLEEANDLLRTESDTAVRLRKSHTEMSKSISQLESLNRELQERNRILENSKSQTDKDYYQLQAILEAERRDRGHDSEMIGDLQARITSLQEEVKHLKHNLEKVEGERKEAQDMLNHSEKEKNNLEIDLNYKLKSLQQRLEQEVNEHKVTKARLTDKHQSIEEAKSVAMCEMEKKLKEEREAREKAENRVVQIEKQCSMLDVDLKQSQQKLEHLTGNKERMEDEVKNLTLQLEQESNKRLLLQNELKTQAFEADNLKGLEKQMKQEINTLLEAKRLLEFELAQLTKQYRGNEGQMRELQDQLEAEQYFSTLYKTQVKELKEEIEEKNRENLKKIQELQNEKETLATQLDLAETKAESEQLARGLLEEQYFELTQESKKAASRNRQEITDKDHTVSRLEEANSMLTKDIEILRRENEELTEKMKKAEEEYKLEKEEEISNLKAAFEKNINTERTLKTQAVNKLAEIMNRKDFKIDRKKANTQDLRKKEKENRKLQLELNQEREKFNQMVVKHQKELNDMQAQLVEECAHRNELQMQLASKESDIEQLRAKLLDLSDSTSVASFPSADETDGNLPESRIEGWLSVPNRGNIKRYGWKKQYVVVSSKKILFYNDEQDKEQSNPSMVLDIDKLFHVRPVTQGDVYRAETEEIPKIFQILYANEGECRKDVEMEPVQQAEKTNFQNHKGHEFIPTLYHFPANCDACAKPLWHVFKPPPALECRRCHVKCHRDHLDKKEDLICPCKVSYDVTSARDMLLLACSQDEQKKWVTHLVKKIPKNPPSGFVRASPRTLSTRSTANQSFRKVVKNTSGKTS

A word on the % Inhibition: it is the relative decrease from the control value, in per cent. High values mean strong suppression, low ones little suppression. Regarding `CSCC[C@@H]1NC(=O)CN(Cc2ccncc2)C1=O` [Compound 1b], the “% Inhibition (@ 100 μM)” value (Table 2) is on record as 1.96%. Also, under setting [1], the “% Inhibition” value is 25%.

For the compound `O=C1CN(Cc2ccncc2)C(=O)[C@H](CO)N1` [Compound 1d], under “Table 2”, the “% Inhibition (@ 100 μM)” value was found to be 1.73%. Under setting [1], the “% Inhibition” value came to 45%.

Regarding `O=C1CN(Cc2ccncc2)C(=O)[C@H](Cc2ccccc2)N1` [Compound 1e], the “% Inhibition” value under setting [1] was approximately 20%.

Turning to `CSCC[C@H]1CN(Cc2ccncc2)CCN1` [Compound 2b], the “% Inhibition (@ 100 μM)” value (Table 2) came to 4.35%. In addition, the “% Inhibition” value under setting [1] is 36%.

As for `OC[C@H]1CN(Cc2ccncc2)CCN1` [Compound 2d], where the note is “Table 2”, the “% Inhibition (@ 100 μM)” value was determined as 3.73%. Besides, under setting [1], the “% Inhibition” value stood at 20%.

As for `CSCC[C@@H]1NC(=O)CN(Cc2ccccc2)C1=O` [Compound 3b], the “% Inhibition” value under setting [1] turned out to be 78%.

Turning to `O=C1CN(Cc2ccccc2)C(=O)[C@H](Cc2ccccc2)N1` [Compound 3e], the “% Inhibition (@ 100 μM)” value (Table 2) was determined as 0.75%. Under setting [1], the “% Inhibition” value is reported as 61%.

On to `CSCC[C@H]1CN(Cc2ccccc2)CCN1` [Compound 4b], for which the “% Inhibition (@ 100 μM)” value (Table 2) is 0.53%. The “% Inhibition” value under setting [1] amounted to 60%.

For `CSCC[C@@H]1NC(=O)CN(Cc2cccc3ccccc23)C1=O` [Compound 5b], the “% Inhibition (@ 100 μM)” value (Table 2) was −1.48%. In addition, the “% Inhibition” value under setting [1] was found to be 93%.

Regarding `O=C1CN(Cc2cccc3ccccc23)C(=O)[C@H](Cc2ccccc2)N1` [Compound 5e], the “% Inhibition (@ 100 μM)” value (Table 2) was −1.87%. For the same compound, the “% Inhibition” value under setting [1] amounted to 71%.

Turning to `CSCC[C@H]1CN(Cc2cccc3ccccc23)CCN1` [Compound 6b], for the setting “Table 2”, the “% Inhibition (@ 100 μM)” value worked out at 11.9%. Further, the “% Inhibition” value under setting [1] amounted to 62%.

For `c1ccc(C[C@H]2CN(Cc3cccc4ccccc34)CCN2)cc1` [Compound 6e, N-Naphtylmethyl-3-benzyl piperazine], the “inhibitory activity / disruption of Rho-kinase activity (in words)” value (“inhibitory activity / disruption” for short) is “particular effectiveness”. Moreover, the “% Inhibition (@ 100 μM)” value (Table 2) is recorded as 20.4%. For the same compound, under setting [1], the “% Inhibition” value is on record as 75%.

Take `CCOC(=O)C1CCN(C(=O)Nc2ccncc2)CC1` [Compound 7]: for the setting “Table 4”, the “Inhibition (@ 100 μM)” value is reported as 6.29 (@ 100 μM).

On to `Cl.O=C(O)C1CCN(C(=O)Nc2ccncc2)CC1` [Compound 8], for which, under “Table 4”, the “Inhibition (@ 100 μM)” value is reported as 1.59 (@ 100 μM).

Turning to `O=C(Nc1ccncc1)N1CCCN(Cc2ccccc2)CC1` [Compound 9], the “Inhibition (@ 100 μM)” value (Table 4) is listed as 21.0 (@ 100 μM).

Take `O=C(Nc1ccncc1)N1CCCNCC1` [Compound 10]: the “Inhibition (@ 100 μM)” value (Table 4) is reported as 16.7 (@ 100 μM).

`O=C(Nc1ccncc1)N1CCN[C@@H](COCc2ccccc2)C1` [Compound 12a]: the “Inhibition (@ 100 μM)” value (Table 4) came out at 9.58.

The pIC50 is −log10 of the IC50, conventionally taken in molar units. As to `O=C(Nc1ccncc1)N1CCN[C@@H](Cc2ccccc2)C1` [Compound 12b], the “inhibitory activity / disruption” value is recorded as “potent disrupters of active Rho-kinase”. The pIC50 under setting [2] is 4.85.

As to `O=C(Nc1ccncc1)NC1CCN(Cc2ccccc2)CC1` [Compound 14a], the pIC50 (Table 4, read-out: IC50) was 4.05.

Regarding `O=C(Nc1ccncc1)OC1CCN(Cc2ccccc2)CC1` [Compound 14b], the pIC50 (Table 4, read-out: IC50) was 4.25.

Take `O=C(Nc1ccncc1)NC1CCNCC1` [Compound 15a]: for the setting “Table 4, read-out: IC50”, the pIC50 was 4.26.

Take `O=C(Nc1ccncc1)OC1CCNCC1` [Compound 16b]: the “inhibitory activity / disruption” value is recorded as “potent disrupters of active Rho-kinase”. Under setting [2], the pIC50 is 5.12.

Compound `CC(C)(C)OC(=O)N1CCN(C(=O)c2cccc3cnccc23)C[C@@H]1Cc1ccccc1` [IP-III-153] registered an Inhibition under setting [3] of 91.

Turning to `O=C(c1cccc2cnccc12)N1CCN[C@@H](Cc2ccccc2)C1` [IP-IV-15], the Inhibition under setting [3] was 70.

As to `c1ccc(C[C@H]2CN(Cc3cccc4cnccc34)CCN2)cc1` [IP-IV-29], under setting [3], the Inhibition is 16 IC50 = 16 μM. Further, the pIC50 (Table 3, read-out: IC50) was 4.80.

On to `CC(C)(C)OC(=O)N1CCN(c2ccnc3ccccc23)C[C@@H]1Cc1ccccc1` [IP-IV-33], for which the “% Inhibition” value under setting [4] was 47%.

As to `CC(C)(C)OC(=O)N1CCN(c2ccnc3ccccc23)C[C@@H]1COCc1ccccc1` [IP-IV-35], the “% Inhibition” value under setting [4] is given as 54%.

Turning to `CCOC(=O)C1CCN(CC(=O)Nc2ccncc2)CC1` [IP-IV-39], the “% Inhibition (@ 100 μM)” value (Table 5) is listed as −1.46 (@ 100 μM) %.

Consider `CC(C)(C)OC(=O)N1CCN(c2cccc3cnccc23)C[C@@H]1Cc1ccccc1` [IP-IV-41], for which the “inhibitory activity / disruption” value is “potent disrupters of active Rho-kinase”. Also, the “% Inhibition (@ 100 μM)” value (Table 1) is 9.71%. The “% Inhibition” value under setting [4] is given as 83%.

As for `CC(C)(C)OC(=O)N1CCN(c2cccc3cnccc23)C[C@@H]1COCc1ccccc1` [IP-IV-43], under “Table 1”, the “% Inhibition (@ 100 μM)” value amounted to 4.73%. Also, the “% Inhibition” value under setting [4] worked out at 49%.

As for `c1ccc(C[C@H]2CN(c3ccnc4ccccc34)CCN2)cc1` [IP-IV-47], the “% Inhibition” value under setting [4] came to 43%.

As to `c1ccc(COC[C@H]2CN(c3ccnc4ccccc34)CCN2)cc1` [IP-IV-49], the “inhibitory activity / disruption” value is given as “potent disrupters of active Rho-kinase”. The “% Inhibition” value under setting [4] was 85%.

Take `c1ccc([C@H]2CN(c3cccc4cnccc34)CCN2)cc1` [IP-IV-67]: the “% Inhibition” value under setting [4] was 67%. For the same compound, the negative logarithm of the IC50 (pIC50) (Table 1, read-out: IC50) is 5.46.

In the case of `O=C(CN1CCCN(Cc2ccccc2)CC1)Nc1ccncc1` [IP-IV-73], the “% Inhibition (@ 100 μM)” value (Table 5) is on record as 13.31 (@ 100 μM) %.

Turning to `O=C(CN1CCCNCC1)Nc1ccncc1` [IP-IV-81], the “% Inhibition (@ 100 μM)” value (Table 5) is 30.61 (@ 100 μM) %.

As to `CC(C)[C@H]1CN(C(=O)c2cccc3cnccc23)CCN1C(=O)OC(C)(C)C` [IP-IV-89], the Inhibition under setting [3] turned out to be 82.

In the case of `CC(C)[C@H]1CN(C(=O)c2cccc3cnccc23)CCN1` [IP-IV-103], the Inhibition under setting [3] turned out to be 81.

As to `O=C(Nc1cccc2cnccc12)N1CCCN(Cc2ccccc2)CC1` [IP-IV-105], where the note is “Table 5”, the “% Inhibition (@ 100 μM)” value was −0.85 (@ 100 μM) %.

The compound `CC(C)[C@H]1CN(Cc2cccc3cnccc23)CCN1` [IP-IV-107] had an Inhibition under setting [3] of 29. In addition, under “Table 3, read-out: IC50”, the negative-log IC50 (pIC50) was 4.66.

As for `c1ccc(C[C@H]2CN(Cc3cccc4ncccc34)CCN2)cc1` [IP-IV-109 R = H2], for the setting “Table 3, read-out: IC50”, the negative-log IC50 (pIC50) was 4.17.

As to `O=C(c1cccc2ncccc12)N1CCNC(Cc2ccccc2)C1` (stereo not drawn) [IP-IV-109 R = O], the “Inhibition (@ 100 μM)” value (Table 3) is 1.55 (@ 100 μM).

`O=C(Nc1cccc2cnccc12)OC1CCN(Cc2ccccc2)CC1` [IP-IV-115]: the “% Inhibition” value (Table 5) worked out at 50%.

On to `O=C(Nc1cccc2cnccc12)NC1CCCCCC1` [IP-IV-129], for which the “% Inhibition” value (Table 5) is recorded as 50%.

These data come from patent publication US8993760B2, “Rock inhibitors and uses thereof” (University of South Florida, priority 2006, dated 2015).
